Experiments:
Format in all cases: cell-based, rat
RGC-5 [1] = assay: LDH assay, TNF-α-induced cell death; conditions: 100 μM of agmatine; for LDH release: 50 ng/mL of TNF-α
Procedure: (§1) The RGC-5 cell line, which is an RGC line developed from post-natal Sprague-Dawley rats, was grown in modified DMEM (Gibco) supplemented with 10% of heat inactivated fetal bovine serum (Gibco) and 100 U/mL of penicillin and 100 μg/mL of streptomycin (Gibco). The cells were passaged every 2 to 3 days and incubated at 37° C. in 5% of CO2 and air. At cultivation, the cells had the same morphology. For all experiments, cells were used at 80% of confluence.
(§2) After washing twice with PBS, cells were cultured in serum-free DMEM and treated with either 10 or 50 ng/mL of recombinant rat TNF-α (Chemicon) for up to 48 hours. The control cells were not exposed to TNF-α. 100 μM of agmatine was added to the culture medium at the start of injury as indicated.
Cell viability was quantified by measuring the amounts of LDH released from the injured cells after TNF-α administration. LDH release is expressed as a value relative to the value of 100, which is the maximum LDH release that occurs after freezing each culture at −70° C. overnight and then rapidly thawing, thus inducing nearly complete cell damage. All experiments were performed in at least quadruplicate, and repeated at least eight times using cell cultures derived from different platings.

RGC-5 [2] = assay: Hoechst 33342 and PI staining after TNF-α
Procedure: as §1, §2
Apoptotic or necrotic cell death was characterized by double staining cells with Hoechst 33342 and PI. Cells were stained with 10 μg/mL of Hoechst 33342 and 10 μg/mL of PI at 37° C. for 30 minutes. After being washed twice with PBS, cells were imaged with a digital camera attached to a fluorescence microscope.

RGC-5 [3] = assay: Annexin-V assay (flow cytometry), TNF-α-induced apoptosis; conditions: 50 ng/mL of TNF-α
Procedure: as §1, §2
The percentage of cells actively undergoing apoptosis was determined by flow cytometry using the Annexin V-FITC Apoptosis Detection Kit (BD Biosciences, Cat no. 556547) according to the manufacturer's instructions. Briefly, cells were harvested and resuspended in binding buffer (10^6 cells/mL). 10^5 cells were mixed with 5 μL of annexin V-FITC and 5 μL of PI. After incubating at room temperature for 15 minutes in the dark, analysis was performed by flow cytometry.

N=C(N)NCCCCN [agmatine]
LDH release (RGC-5 [1]; 24 hours): 5.91±0.86%
LDH release (RGC-5 [1]; 48 hours): 8.14±2.43%
TNF-α-induced LDH release (RGC-5 [1]; all P<0.001): significantly inhibited
RGC loss (Hoechst-positive / PI-positive cells) (RGC-5 [2]; 50 ng/mL of TNF-α for 48 hours, 100 μM of agmatine): RGC loss was prevented
effect on culture (Hoechst-positive / PI-labeled cells) (RGC-5 [2]; only 100 μM of agmatine, no TNF-α, 48 hours): did not have a significant effect
proportion of apoptotic cells (RGC-5 [3]; 12 hour exposure, agmatine 100 μM): no significant difference
proportion of apoptotic cells (RGC-5 [3]; 24 hours of exposure, 100 μM of agmatine): significant decrease in apoptotic cells

Reference: patent publication US8084502B2, “Use of agmatine for protection of retinal ganglion cells” (priority 2007, dated 2011)
